Reference: patent US20030003508A1 (priority 1999, published 2003)

Tested on: R. pulicis
Assay type: cell-based, Rickettsia pulicis

CC[C@H]1OC(=O)[C@H](C)[C@@H](O[C@H]2C[C@@](C)(OC)[C@@H](O)[C@H](C)O2)[C@H](C)[C@@H](O[C@@H]2O[C@H](C)C[C@H](N(C)C)[C@H]2O)[C@](C)(O)C[C@@H](C)C(=O)[C@H](C)[C@@H](O)[C@]1(C)O [Erythromycin]
resistance/sensitivity of the isolate to the antibiotic: resistant
